Results as given in the supplement of paper PMC10307832.

What was measured:
Test in all cases: relative viability (nuclei count vs DMSO), 5 days (fraction); higher = more cells survive
COR-L 105 = test system: COR-L 105
Summary of the method: (§1)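 Lung cancer cell lines, seeded in 1536-well plates, were treated the following day by pin tool with a single drug or with five library-drug doses (not always all listed) in √10 steps on top of a fixed anchor-drug dose. Cells were fixed and nuclei stained in one step after 5 days, and nuclei were counted. Relative viability is the nuclei count for treated wells divided by that for vehicle wells, reported as medians of duplicate plates.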

HCC-366 = test system: HCC-366
Summary of the method: as §1

NCI-H1395 = test system: NCI-H1395
Summary of the method: as §1

NCI-H1915 = test system: NCI-H1915
Summary of the method: as §1

LCLC-103H = test system: LCLC-103H
Summary of the method: as §1

CAL-12T = test system: CAL-12T
Summary of the method: as §1

NCI-H727 = test system: NCI-H727
Summary of the method: as §1

HARA = test system: HARA
Summary of the method: as §1

NCI-H2228 = test system: NCI-H2228
Summary of the method: as §1

HOP-62 = test system: HOP-62
Summary of the method: as §1

NCI-H1792 = test system: NCI-H1792
Summary of the method: as §1

NCI-H460 = test system: NCI-H460
Summary of the method: as §1

EMC-BAC-2 = test system: EMC-BAC-2
Summary of the method: as §1

NCI-H1355 = test system: NCI-H1355
Summary of the method: as §1

HCC-827 = test system: HCC-827
Summary of the method: as §1

NCI-H23 = test system: NCI-H23
Summary of the method: as §1

SK-LU-1 = test system: SK-LU-1
Summary of the method: as §1

NCI-H1975 = test system: NCI-H1975
Summary of the method: as §1

A-427 = test system: A-427
Summary of the method: as §1

NCI-H1755 = test system: NCI-H1755
Summary of the method: as §1

NCI-H2009 = test system: NCI-H2009
Summary of the method: as §1

SW 1573 = test system: SW 1573
Summary of the method: as §1

NCI-H1437 = test system: NCI-H1437
Summary of the method: as §1

SMILES: C=C1C(=O)O[C@@H](CCCCCCCC)[C@@H]1C(=O)O [C-75] + Cc1nc(NC(=O)N2CCC[C@H]2C(N)=O)sc1-c1ccnc(C(C)(C)C(F)(F)F)c1 [Alpelisib] (partner 2 µM)
- relative viability (COR-L 105; first compound 0.08 µM): 1.15
- relative viability (COR-L 105; first compound 0.253 µM): 1.1
- relative viability (COR-L 105; first compound 0.8 µM): 1.06
- relative viability (COR-L 105; first compound 2.53 µM): 0.895
- relative viability (COR-L 105; first compound 8 µM): 0.668
- relative viability (HCC-366; first compound 0.08 µM): 0.502
- relative viability (HCC-366; first compound 0.253 µM): 0.48
- relative viability (HCC-366; first compound 0.8 µM): 0.381
- relative viability (HCC-366; first compound 8 µM): 0.404
- relative viability (NCI-H1395; first compound 0.08 µM): 1.05
- relative viability (NCI-H1395; first compound 0.253 µM): 1.13
- relative viability (NCI-H1395; first compound 0.8 µM): 1.07
- relative viability (NCI-H1395; first compound 2.53 µM): 0.868
- relative viability (NCI-H1395; first compound 8 µM): 1.28
- relative viability (NCI-H1915; first compound 0.08 µM): 1.06
- relative viability (NCI-H1915; first compound 0.253 µM): 1.09
- relative viability (NCI-H1915; first compound 0.8 µM): 1.07
- relative viability (NCI-H1915; first compound 2.53 µM): 0.51
- relative viability (NCI-H1915; first compound 8 µM): 1.01
- relative viability (LCLC-103H; first compound 0.08 µM): 0.986
- relative viability (LCLC-103H; first compound 0.253 µM): 0.94
- relative viability (LCLC-103H; first compound 0.8 µM): 1.01
- relative viability (LCLC-103H; first compound 2.53 µM): 0.89
- relative viability (LCLC-103H; first compound 8 µM): 0.908
- relative viability (CAL-12T; first compound 0.08 µM): 1.19
- relative viability (CAL-12T; first compound 0.253 µM): 1.47
- relative viability (CAL-12T; first compound 0.8 µM): 1.12
- relative viability (CAL-12T; first compound 8 µM): 1.33
- relative viability (NCI-H727; first compound 0.08 µM): 0.467
- relative viability (NCI-H727; first compound 0.253 µM): 0.76
- relative viability (NCI-H727; first compound 0.8 µM): 0.616
- relative viability (NCI-H727; first compound 2.53 µM): 0.579
- relative viability (NCI-H727; first compound 8 µM): 0.688
- relative viability (HARA; first compound 0.08 µM): 0.849
- relative viability (HARA; first compound 0.253 µM): 1
- relative viability (HARA; first compound 0.8 µM): 0.767
- relative viability (HARA; first compound 8 µM): 0.883
- relative viability (NCI-H2228; first compound 0.08 µM): 0.751
- relative viability (NCI-H2228; first compound 0.253 µM): 1.01
- relative viability (NCI-H2228; first compound 0.8 µM): 0.73
- relative viability (NCI-H2228; first compound 2.53 µM): 0.604
- relative viability (NCI-H2228; first compound 8 µM): 0.744
- relative viability (HOP-62; first compound 0.08 µM): 0.9
- relative viability (HOP-62; first compound 0.253 µM): 1.11
- relative viability (HOP-62; first compound 0.8 µM): 0.95
- relative viability (HOP-62; first compound 2.53 µM): 0.926
- relative viability (HOP-62; first compound 8 µM): 0.765
- relative viability (NCI-H1792; first compound 0.08 µM): 0.67
- relative viability (NCI-H1792; first compound 0.253 µM): 0.728
- relative viability (NCI-H1792; first compound 0.8 µM): 0.687
- relative viability (NCI-H1792; first compound 2.53 µM): 0.581
- relative viability (NCI-H1792; first compound 8 µM): 0.673
- relative viability (NCI-H460; first compound 0.08 µM): 0.517
- relative viability (NCI-H460; first compound 0.253 µM): 0.485
- relative viability (NCI-H460; first compound 0.8 µM): 0.475
- relative viability (NCI-H460; first compound 8 µM): 0.374
- relative viability (EMC-BAC-2; first compound 0.08 µM): 0.726
- relative viability (EMC-BAC-2; first compound 0.253 µM): 0.688
- relative viability (EMC-BAC-2; first compound 0.8 µM): 0.717
- relative viability (EMC-BAC-2; first compound 2.53 µM): 0.679
- relative viability (EMC-BAC-2; first compound 8 µM): 0.726
- relative viability (NCI-H1355; first compound 0.08 µM): 0.815
- relative viability (NCI-H1355; first compound 0.253 µM): 0.825
- relative viability (NCI-H1355; first compound 0.8 µM): 0.825
- relative viability (NCI-H1355; first compound 2.53 µM): 0.835
- relative viability (NCI-H1355; first compound 8 µM): 0.886
- relative viability (HCC-827; first compound 0.08 µM): 0.936
- relative viability (HCC-827; first compound 0.253 µM): 0.97
- relative viability (HCC-827; first compound 0.8 µM): 0.953
- relative viability (HCC-827; first compound 2.53 µM): 1.01
- relative viability (HCC-827; first compound 8 µM): 0.987
- relative viability (NCI-H23; first compound 0.08 µM): 0.546
- relative viability (NCI-H23; first compound 0.253 µM): 0.818
- relative viability (NCI-H23; first compound 0.8 µM): 0.565
- relative viability (NCI-H23; first compound 2.53 µM): 0.618
- relative viability (NCI-H23; first compound 8 µM): 0.505
- relative viability (SK-LU-1; first compound 0.08 µM): 1.04
- relative viability (SK-LU-1; first compound 0.253 µM): 1.23
- relative viability (SK-LU-1; first compound 0.8 µM): 0.909
- relative viability (SK-LU-1; first compound 2.53 µM): 1.02
- relative viability (SK-LU-1; first compound 8 µM): 0.552
- relative viability (NCI-H1975; first compound 0.08 µM): 0.657
- relative viability (NCI-H1975; first compound 0.253 µM): 0.675
- relative viability (NCI-H1975; first compound 0.8 µM): 0.698
- relative viability (NCI-H1975; first compound 2.53 µM): 0.61
- relative viability (NCI-H1975; first compound 8 µM): 0.66
- relative viability (A-427; first compound 0.08 µM): 1.06
- relative viability (A-427; first compound 0.253 µM): 1.08
- relative viability (A-427; first compound 0.8 µM): 1.14
- relative viability (A-427; first compound 2.53 µM): 0.95
- relative viability (A-427; first compound 8 µM): 1.03
- relative viability (NCI-H1755; first compound 0.08 µM): 0.938
- relative viability (NCI-H1755; first compound 0.253 µM): 0.823
- relative viability (NCI-H1755; first compound 0.8 µM): 0.913
- relative viability (NCI-H1755; first compound 2.53 µM): 0.739
- relative viability (NCI-H1755; first compound 8 µM): 0.919
- relative viability (NCI-H2009; first compound 0.08 µM): 1.17
- relative viability (NCI-H2009; first compound 0.253 µM): 1.14
- relative viability (NCI-H2009; first compound 0.8 µM): 1.18
- relative viability (NCI-H2009; first compound 2.53 µM): 1.14
- relative viability (NCI-H2009; first compound 8 µM): 1.03
- relative viability (SW 1573; first compound 0.08 µM): 0.711
- relative viability (SW 1573; first compound 0.253 µM): 0.7
- relative viability (SW 1573; first compound 0.8 µM): 0.638
- relative viability (SW 1573; first compound 2.53 µM): 0.683
- relative viability (SW 1573; first compound 8 µM): 0.655
- relative viability (NCI-H1437; first compound 0.08 µM): 0.942
- relative viability (NCI-H1437; first compound 0.253 µM): 0.969
- relative viability (NCI-H1437; first compound 0.8 µM): 1.01
- relative viability (NCI-H1437; first compound 2.53 µM): 0.961
- relative viability (NCI-H1437; first compound 8 µM): 1.07
